{
  "source": "patent US20250002969A1",
  "about": "“DISCRIMINATION OF ANTIBIOTIC RESISTANT AND SENSITIVE SAMPLES” (priority 2021, published 2025)",
  "key": {"[1]": {"tested_on": "Staph. aureus clinical isolates", "experiment": "Growth curves (optical density) of clinical isolates in presence of daptomycin", "assay_type": "cell-based", "description": "Growth curves of multiple clinical isolates of the representative bacteria S. aureus as illustrated in FIGS. 4A through 4D were determined using a BioTek Synergy HI plate reader (available from BioTek Instruments (of Agilent Technologies), Winooski, Vermont). S. aureus isolates growth rates were tested in the presence and absence of the representative antibiotic daptomycin. Differential growth rates were identifiable after two hours of the sixteen-hour growth curve. Two-hour differentiation was confirmed by Newton-Raphson root finding method.\n(§1) Sample preparation. Clinical isolates of Staph. aureus were obtained from the Urisch laboratory at the UPMC Department of Othopaedic Surgery. Isolates were de-identified according to IRB protocol and were stored in 50% glycerol solution at −80° C. Isolates were streaked for single colonies on mannitol salt agar (MSA) plates and cultures were grown in mannitol salt broth, shaking at 36.5° C. Overnight cultures were then diluted into fresh media and regrown for 2 hours to ensure that bacteria were entering exponential growth phase. Exponentially growing cultures were mixed with media or daptomycin in a 1:1 ratio. Daptomycin was added to 0.5 ml of culture to a final concentration of 0.25 μg/ml. Identical cultures were used in all experiments using PAFC and BioTek HI plate reader. For photoacoustic testing, bacteriophage SP1 was added to a concentration of 1000 phage per bacterial cell. Growth curves were performed for 16 hours with measurements taken once every minute.\nTreated and control cultures were placed in a round bottom 96 well culture plate (Falcon microtest 96 well plate 35077, ThermoFisher, Waltham, Massachusetts) and were placed into the BioTek HI plate reader. Optical density (OD) measurements were taken every minute at 600 nm wavelength. Between measurements, the plate was shaken at 100 rpm and maintained at 36.5+C allowing for bacterial growth. The two-hour time point was determined to be sufficient to differentiate the growth rates. Additionally, multiple replicates of each bacterial strain were grown at 36.5° C. in the BioTek HI plate reader and 100 μL was removed and plated on MSA plates every 10 minutes. Growth curves were made directly from these titers for each strain to give a quantifiable number of bacterial cells for each OD."}, "[2]": {"tested_on": "Staph. aureus clinical isolates", "experiment": "PAFC cell count of clinical isolates in presence of daptomycin, dyed SP1 phage label", "assay_type": "cell-based", "description": "All strains were tested in the presence and absence of daptomycin. In a number of studies hereof, cultures were diluted into fresh media and regrown for 2 hours in the presence and absence of […] of daptomycin. Each sample was then incubated at room temperature for 10 minutes with multiple dyed phage per bacterial cell. Incubated samples were then processed through PAFC system 100 and number of detected cells recorded. Isolates were tested in triplicated for both the plate reader and PAFC system.\nas §1\nPhotoacoustic Flow Cytometry. […] Laser beam energy was maintained and measured between 1.9 and 2.1/mJ for all PAFC experiments. […] The laser beam was assumed Gaussian in shape and fluence was calculated to be 0.014 mJ/cm^2 and detection volume was determined to be 0.04 μL.\nAll strains were tested in the presence and absence of daptomycin. […] Incubated samples were then processed through the PAFC system and number of detected cells recorded. Isolates were tested in triplicate for both the plate reader and PAFC system."}, "[3]": {"tested_on": "MRSA", "settings": "cited from earlier work"}, "[4]": {"tested_on": "VRSA", "settings": "cited from earlier work"}, "[5]": {"tested_on": "S. aureus clinical isolates", "experiment": "Photoacoustic flow cytometry (PAFC) detections of clinical isolates incubated with oxacillin", "assay_type": "cell-based, Staphylococcus aureus", "settings": "for Treated Detections: oxacillin 1 μmg/ml, 2 hours", "description": "In a representative study, total of thirteen samples were tested for the mecA gene using PCR, thus determining their methicillin resistance before photoacoustic testing. Streaks of each S. aureus strain were grown on mannitol salt agar plates. Single colonies from each streak plate were used to regrow strains in mannitol salt broth for 2 hours in a shaking water bath at 36.5 C. That period ensured cells were growing and entering exponential growth phase. Oxacillin was added at a final concentration of 1 μmg/ml to half of each culture and grown for an additional 2 hours. Before processing through PAFC system, 100 μl from each culture was removed and used for growth analysis in an HI plate reader (available from Biotek of Winooski, Vermont). Growth curves were made for each culture by taking the optical density of each treated and untreated culture every minute over a 16-hour period. As described above, it was determined that two hours of antibiotic treatment was sufficient to determine differential growth rates from prior experimentation. Prior to performing photoacoustic testing, treated and untreated samples were incubated side-by-side for two hours. Photoacoustic testing of treated and untreated samples for each isolate were alternated, so that both samples were tested within twenty minutes to allow for similar growth times. Thus, total bacteria number could be compared properly.\nTo interpret the photoacoustic data provided by the flow cytometer, k-means clustering was used to guide the differentiation between methicillin resistant and susceptible samples. […] K-means, like other clustering methods, takes data points in a space of one or more dimensions and determines natural groupings of those points by proximity. Given a number of clusters, k, the algorithm separates all points into that number of groups. In a representative study, there was an interest in identifying only resistant and susceptible groups. Thus, k=2 was chosen.\nThe ratio of treated detection numbers over untreated numbers was determined, resulting in 13 numbers which were approximately in the range of 0 to 1. Lower numbers indicate that oxacillin was effective in decreasing the S. aureus population. However, there was no ad hoc threshold for determining antibiotic resistance. K-means with two clusters was applied to the data set using the MATLAB programming language (available from Math Works of Natick, Massachusetts). The MATLAB function, kmeans, uses Lloyd's algorithm. For simplicity, Euclidean distance was used for measuring and establishing iterative clusters.\nBecause the sample size was relatively small and the distribution was not obviously Gaussian, a nonparametric test was performed to compare the means of the bacterial counts before and after treatment with oxacillin. Using a Wilcoxon matched pairs signed rank test, a p-value of 0.0007 was calculated.\nPhotoacoustic Flow Cytometry. A 1000 μm optical fiber with numerical aperture of 0.39 (Thorlabs, Newton, New Jersey) was used to deliver laser light at 532 nm with a 5 ns pulse duration from a Nd:YAG laser (Litron Nano, Boseman, Montana). Laser beam energy was maintained and measured between 1.9 and 2.1/mJ for all PAFC experiments. The optical fiber was placed 5 mm away from a quartz tube (Quartz 10 QZ, Charles Supper, Natick, Massachusetts) with 10 μm thick walls. Samples were pumped through the quartz tube inside a 3D printed flow chamber. The laser beam was assumed Gaussian in shape and fluence was calculated to be 0.014 mJ/cm^2 and detection volume was determined to be 0.04 μL."}},
  "data": [
    {"smiles": "CCCCCCCCCC(=O)N[C@@H](Cc1c[nH]c2ccccc12)C(=O)N[C@H](CC(N)=O)C(=O)N[C@@H](CC(=O)O)C(=O)N[C@@H]1C(=O)NCC(=O)N[C@@H](CCCN)C(=O)N[C@@H](CC(=O)O)C(=O)N[C@H](C)C(=O)N[C@@H](CC(=O)O)C(=O)NCC(=O)N[C@H](CO)C(=O)N[C@@H]([C@H](C)CC(=O)O)C(=O)N[C@@H](CC(=O)c2ccccc2N)C(=O)O[C@@H]1C", "note": "[daptomycin]", "values": [
      {"measurement": "growth (optical density) treated vs untreated", "setting": "[1]; heterogeneous strain A, FIG. 4C", "result": "delay of exponential growth"},
      {"measurement": "growth (optical density) treated vs untreated", "setting": "[1]; heterogeneous strain B, FIG. 4D", "result": "no delay in initial growth is observed but severe retardation of growth starting at 1.5 hours"},
      {"measurement": "growth (optical density) treated vs untreated", "setting": "[1]; resistant clinical isolate, FIG. 4B, 2 h and 16 h", "result": "no delay or inhibition of growth"},
      {"measurement": "growth (optical density) treated vs untreated", "setting": "[1]; susceptible clinical isolate, FIG. 4A, 2 h and 16 h", "result": "complete inhibition of growth"},
      {"measurement": "cells detected by PAFC, treated vs untreated", "setting": "[2]; heterogeneous resistant strains", "result": "intermediary number of cells detected"},
      {"measurement": "cells detected by PAFC, treated vs untreated", "setting": "[2]; homogeneous resistant strains", "result": "identical or nearly identical numbers of cells"},
      {"measurement": "cell count via photoacoustic detection", "setting": "[2]; susceptible clinical isolate, FIG. 4A, two-hour timepoint", "result": "zero detection"},
      {"measurement": "MIC", "setting": "[3]", "result": "0.25 to 1", "unit": "µg/mL"},
      {"measurement": "MIC", "setting": "[4]", "result": "> 4", "unit": "µg/mL"}
    ]},
    {"smiles": "Cc1onc(-c2ccccc2)c1C(=O)N[C@@H]1C(=O)N2[C@@H]1SC(C)(C)[C@@H]2C(=O)O", "note": "[oxacillin]", "values": [
      {"measurement": "Treated Detections", "setting": "[5]; isolate B1899 (mecA Yes)", "result": 404},
      {"measurement": "Treated Detections", "setting": "[5]; isolate K3237 (mecA No)", "result": 44},
      {"measurement": "Treated Detections", "setting": "[5]; isolate K3251 (mecA No)", "result": 7},
      {"measurement": "Treated Detections", "setting": "[5]; isolate K3255 (mecA No)", "result": 53},
      {"measurement": "Treated Detections", "setting": "[5]; isolate K3261 (mecA Yes)", "result": 135},
      {"measurement": "Treated Detections", "setting": "[5]; isolate K3262 (mecA No)", "result": 10},
      {"measurement": "Treated Detections", "setting": "[5]; isolate K3266 (mecA No)", "result": 18},
      {"measurement": "Treated Detections", "setting": "[5]; isolate K3268 (mecA Yes)", "result": 110},
      {"measurement": "Treated Detections", "setting": "[5]; isolate K3270 (mecA Yes)", "result": 134},
      {"measurement": "Treated Detections", "setting": "[5]; isolate K3279 (mecA Yes)", "result": 175},
      {"measurement": "Treated Detections", "setting": "[5]; isolate K3280 (mecA Yes)", "result": 179},
      {"measurement": "Treated Detections", "setting": "[5]; isolate K3282 (mecA Yes)", "result": 689},
      {"measurement": "Treated Detections", "setting": "[5]; isolate K3287 (mecA No)", "result": 2},
      {"measurement": "mean ratio of treated to untreated", "setting": "[5]; second subgroup, markedly different growth", "result": 0.10},
      {"measurement": "mean ratio of treated to untreated", "setting": "[5]; subgroup with similar growth rates (isolates with mecA gene)", "result": 0.87}
    ]}
  ]
}
